One series relates to HEK293 cells. The experiment in a line: MTT cytotoxicity assay on HEK293 cells. In kind it is cell-based, human. The note with it: for IC50: Homo sapiens, HEK293, 24 h exposure, 12.5–100 μM; for cytotoxic effects on healthy HEK293 cells (in words): 24 h, up to 100 μM. Here is the method: The HEK293 was used for cell culture studies and obtained from the American Type Culture Collection (ATCC). Cells were cultured in RPMI-1640 cell medium supplemented with 10% fetal calf serum (FBS) and 1% penicillin/streptomycin. Cells were seeded 6 × 10^5/mL density into 96 well cell culture plates and incubated in a CO2 incubator at 37 °C. The cells were exposed to different chemical concentrations (100, 50, 25 and 12,5 μM) for 24 h after reaching a confluency of 80%.
The MTT assay was used to assess the cell viability. The MTT assay included putting the cells in an MTT solution (at 1 mg/mL concentration) and incubating them for 1 h at 37 °C. The absorbance was measured at a wavelength of 570 nm using an Epoch microplate spectrophotometer.
On the technique in general: Tetrazolium assays rely on reduction of a dye to a coloured formazan, in cell work by metabolically active cells.

For series [1], the target named is α-glucosidase. The experiment in a line: α-glucosidase inhibitory activity (p-nitrophenyl-α-D-glucopyranoside method). In kind it is biochemical. As for the experimental part: After 20 min incubation at 37 °C, 90 μL Na2CO3 (100 mM) was added into the each well to stop the enzymatic reaction. Absorbance of the 96-well microplate reader was recorded at 400 nm. Antidiabetic inhibition activity data were taken in three parallel measurements for four concentrations of each synthesis sample. The results of the biological activity analyses are presented as IC50 values.

Series [2] concerns α-glucosidase. The description is as above. In kind it is biochemical. This is another data set of the same source.
In a further series the target is T1, α-amylase (Sus scrofa, UniProt P00690).
T1 sequence (P00690 16-511): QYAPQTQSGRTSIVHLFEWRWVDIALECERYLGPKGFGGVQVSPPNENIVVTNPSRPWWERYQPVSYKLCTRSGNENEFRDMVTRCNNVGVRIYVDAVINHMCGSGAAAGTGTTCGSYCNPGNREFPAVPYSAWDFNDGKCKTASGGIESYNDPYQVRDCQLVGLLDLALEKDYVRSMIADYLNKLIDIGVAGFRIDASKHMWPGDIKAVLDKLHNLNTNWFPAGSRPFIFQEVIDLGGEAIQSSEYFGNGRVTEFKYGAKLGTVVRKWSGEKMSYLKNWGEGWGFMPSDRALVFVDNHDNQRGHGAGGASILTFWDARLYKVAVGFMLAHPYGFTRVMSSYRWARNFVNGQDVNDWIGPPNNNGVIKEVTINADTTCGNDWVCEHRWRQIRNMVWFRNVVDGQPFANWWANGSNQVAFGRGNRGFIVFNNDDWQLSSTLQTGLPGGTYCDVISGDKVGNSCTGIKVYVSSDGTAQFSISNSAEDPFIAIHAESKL
The experiment in a line: α-amylase inhibitory activity (spectroscopic starch/Lugol method). In kind it is biochemical.

[3] abbreviates: mean ± SEM of three parallel measurements, read-out: antidiabetic inhibition activity IC50, α-glucosidase.
Where [4] appears, read: no unit in Table 5, same values as Table 2 (there μM), read-out: IC50 value (α-glucosidase), as repeated in docking Table 5.

“Also recorded” adds a separate entry of the source. Like-named read-outs stand apart in the source and are kept apart here.

The IC50 is the midpoint of a concentration-inhibition curve. `CC(=NNC(=O)c1ccc(C)cc1)c1ccc(S(=O)(=O)NC(=O)NC2CCCCC2)cc1` [compound 7, N-(Cyclohexylcarbamoyl)-4-(1-(2-(4-methylbenzoyl)-hydrazinylidene)-ethyl)-benzenesulfonamide]: the figures for the 50% inhibitory concentration (IC50) in the series on HEK293 cells, on α-glucosidase [1] (setting [3]) and at α-glucosidase [1] (setting [4]) were 61 µM, 46.14 ± 0.33 µM and 46.14 ± 0.33 µM, respectively.

In the case of `CC(=NNC(=O)c1ccc(I)cc1)c1ccc(S(=O)(=O)NC(=O)NC2CCCCC2)cc1` [compound 4, N-(Cyclohexylcarbamoyl)-4-(1-(2-(4-iodobenzoyl)-hydrazinylidene)-ethyl)-benzenesulfonamide], the IC50 was > 100 µM in the series with HEK293 cells, 84.97 ± 0.46 µM at α-glucosidase [1] (setting [3]) and 84.97 ± 0.46 µM on α-glucosidase [1] (setting [4]).

For the molecule `CC(=NNC(=O)c1ccc([N+](=O)[O-])cc1)c1ccc(S(=O)(=O)NC(=O)NC2CCCCC2)cc1` [compound 10, N-(Cyclohexylcarbamoyl)-4-(1-(2-(4-nitrobenzoyl)-hydrazinylidene)-ethyl)-benzenesulfonamide], in the series with HEK293 cells, the “cytotoxic effects on healthy HEK293 cells (in words)” value (from here on “cytotoxic effects”) is on record as “not causing any damage to healthy cells; also recorded: no negative impact on healthy cells”. Moreover, the 50% inhibitory concentration (IC50) was > 100 µM with HEK293 cells, 40.44 ± 0.23 µM on α-glucosidase [1] (setting [3]) and 40.44 ± 0.23 µM at α-glucosidase [1] (setting [4]).

`CC(=NNC(=O)c1ccc(Cl)cc1)c1ccc(S(=O)(=O)NC(=O)NC2CCCCC2)cc1` [compound 14, 4-(1-(2-(4-Chlorobenzoyl)-hydrazinylidene)-ethyl)-N-(cyclohexylcarbamoyl)-benzenesulfonamide]: the IC50 on α-glucosidase [1] (setting [3]) and on α-glucosidase [1] (setting [4]) was 52.25 ± 0.44 µM throughout.

`CC(=NNC(=O)c1ccccc1[N+](=O)[O-])c1ccc(S(=O)(=O)NC(=O)NC2CCCCC2)cc1` [compound 13, N-(Cyclohexylcarbamoyl)-4-(1-(2-(2-nitrobenzoyl)-hydrazinylidene)-ethyl)-benzenesulfonamide]: the figures for the IC50 in the series with HEK293 cells, at α-glucosidase [1] (setting [3]) and at α-glucosidase [1] (setting [4]) were > 100 µM, 66.38 ± 0.37 µM and 66.38 ± 0.37 µM, respectively.

Turning to `CC(=NNC(=O)c1ccc(Br)cc1)c1ccc(S(=O)(=O)NC(=O)NC2CCCCC2)cc1` [compound 5, N-(Cyclohexylcarbamoyl)-4-(1-(2-(4-bromobenzoyl)-hydrazinylidene)-ethyl)-benzenesulfonamide], the IC50 with HEK293 cells was > 100 µM; at α-glucosidase [1] (setting [3]), 77.36 ± 0.31 µM; at α-glucosidase [1] (setting [4]), 77.36 ± 0.31 µM.

With `C[C@H]1O[C@H](O[C@H]2[C@H](O)[C@@H](O)[C@@H](O[C@H]3[C@H](O)[C@@H](O)C(O)O[C@@H]3CO)O[C@@H]2CO)[C@H](O)[C@@H](O)[C@@H]1N[C@H]1C=C(CO)[C@@H](O)[C@H](O)[C@H]1O` (some centres unmarked) [acarbose, reference compound], in the series with HEK293 cells, the “cytotoxic effects” value is recorded as “nontoxic; also recorded: no cytotoxic effects” and the IC50 is > 100 µM.

Consider `COc1ccc(C(=O)N/N=C(\C)c2ccc(S(=O)(=O)NC(=O)NC3CCCCC3)cc2)cc1` [compound 8, N-(Cyclohexylcarbamoyl)-4-(1-(2-(4-methoxy)-hydrazinilidene)-ethyl)-benzenesulfonamide], for which the “cytotoxic effects” value with HEK293 cells is recorded as “not causing any damage to healthy cells; also recorded: no negative impact on healthy cells”. Besides, the “type of inhibition of α-glucosidase (enzyme kinetic study, Lineweaver–Burk)” value in the series with α-glucosidase [2] is recorded as “uncompetitive”. In addition, the IC50 on α-glucosidase [1] (setting [3]) and on α-glucosidase [1] (setting [4]) was 38.1 ± 0.8 µM in each case. In addition, the “type of inhibition of α-amylase (enzyme kinetic study, Lineweaver–Burk)” value on α-amylase was “uncompetitive”.

For `C/C(=N\NC(=O)c1cccc2ccccc12)c1ccc(S(=O)(=O)NC(=O)NC2CCCCC2)cc1` [compound 11, 4-(1-(2-(1-Naphthalene)-hydrazinylidene)-ethyl)-N-(cyclocarbamoyl)-benzenesulfonamide], the IC50 in the series with HEK293 cells is > 100 µM; on α-glucosidase [1] (setting [3]), 57.1 ± 0.78 µM; at α-glucosidase [1] (setting [4]), 57.1 ± 0.78 µM.

Consider `CC(=NNC(=O)c1ccc(F)cc1)c1ccc(S(=O)(=O)NC(=O)NC2CCCCC2)cc1` [compound 3, N-(Cyclohexylcarbamoyl)-4-(1-(2-(4-fluorobenzoyl)-hydrazinylidene)-ethyl)-benzenesulfonamide], for which the “cytotoxic effects” value with HEK293 cells is “not causing any damage to healthy cells; also recorded: no negative impact on healthy cells”. Besides, the half-inhibitory concentration (IC50) in the series on HEK293 cells was > 100 µM; on α-glucosidase [1] (setting [3]) it was 45.34 ± 0.36 µM; at α-glucosidase [1] (setting [4]), 45.34 ± 0.36 µM.

Turning to `C/C(=N\NC(=O)c1ccccc1)c1ccc(S(=O)(=O)NC(=O)NC2CCCCC2)cc1` [compound 1, 4-(1-(2-Benzoylhydrazinilidene)-ethyl)-N-(cyclohexylcarbamoyl)-benzenesulfonamide], the IC50 with HEK293 cells is > 100 µM; at α-glucosidase [1] (setting [3]), 108 ± 0.69 µM; on α-glucosidase [1] (setting [4]), 108 ± 0.69 µM.

On to `CC(=NNC(=O)c1cccc(Cl)c1)c1ccc(S(=O)(=O)NC(=O)NC2CCCCC2)cc1` [compound 2, 4-(1-(2-(3-Chlorobenzoyl)-hydrazinylidene)-ethyl)-N-(cyclohexylcarbamoyl)-benzenesulfonamide], for which the IC50 in the series on HEK293 cells was > 100 µM; at α-glucosidase [1] (setting [3]), 68.75 ± 0.37 µM; at α-glucosidase [1] (setting [4]), 68.75 ± 0.37 µM.

`CC(=NNC(=O)c1cccc([N+](=O)[O-])c1)c1ccc(S(=O)(=O)NC(=O)NC2CCCCC2)cc1` [compound 9, N-(Cyclohexylcarbamoyl)-4-(1-(2-(3-nitrobenzoyl)-hydrazinylidene)-ethyl)-benzenesulfonamide]: the IC50 was determined as 69.2 µM in the series with HEK293 cells, 61.2 ± 0.69 µM at α-glucosidase [1] (setting [3]) and 61.2 ± 0.69 µM at α-glucosidase [1] (setting [4]).
